The values below are quoted from earlier work in patent publication US20120142750A1, “INDOLEAMINE 2,3-DIOXYGENASE PATHWAYS IN THE GENERATION OF REGULATORY T CELLS” (Regents of the University of Minnesota, priority 2005, published 2012).

The data set addresses IDO (Homo sapiens, UniProt P14902). The following applies: approximate literature value; cited from earlier work.

Chain of IDO (P14902 whole entry): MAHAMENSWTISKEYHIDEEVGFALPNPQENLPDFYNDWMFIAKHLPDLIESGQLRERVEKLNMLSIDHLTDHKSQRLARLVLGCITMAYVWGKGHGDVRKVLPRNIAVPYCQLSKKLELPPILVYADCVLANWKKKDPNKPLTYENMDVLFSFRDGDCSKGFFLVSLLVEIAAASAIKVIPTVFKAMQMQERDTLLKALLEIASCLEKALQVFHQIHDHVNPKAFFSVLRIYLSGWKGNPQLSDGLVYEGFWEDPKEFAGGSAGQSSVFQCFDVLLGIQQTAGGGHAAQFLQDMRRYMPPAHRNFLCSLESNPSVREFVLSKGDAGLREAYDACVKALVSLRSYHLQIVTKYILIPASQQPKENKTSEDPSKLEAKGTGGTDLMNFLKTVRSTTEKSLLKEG

With `O=C1C2=C(Nc3cc([N+](=O)[O-])ccc3N2)OC1c1ccc(C2OC3=C(Nc4ccc([N+](=O)[O-])cc4N3)C2=O)cc1` (stereo not shown) [Inhibitor V], the EC50 – broadly, the concentration giving half of the maximal effect – was around 1000 nM.
